For test [1], the target named is T1, CtAAAH-F (aromatic amino acid hydroxylase W192F) (Cupriavidus taiwanensis, UniProt B3R7Q6, W192F/F197L/E219C).
T1 construct: gene phhA; engineered W192F parent, expressed in E. coli from pACYCDuet-1 derivatives; tag and purification not described here
Description: tryptophan hydroxylation assay, Lineweaver-Burk plot. The format is biochemical. As to conditions: made in the CtAAAH-F (W192F) background; assay conditions only by citation. The source says:
(§1) tryptophan hydroxylation assay, Lineweaver-Burk plot on CtAAAH-F (aromatic amino acid hydroxylase W192F)

In test [2] the target is T2, CtAAAH-F (aromatic amino acid hydroxylase W192F) (Cupriavidus taiwanensis, UniProt B3R7Q6, W192F/F197L).
T2 construct: gene phhA; engineered W192F parent, expressed in E. coli from pACYCDuet-1 derivatives; tag and purification not described here
T2 sequence (B3R7Q6 entry or part of it W192F/F197L): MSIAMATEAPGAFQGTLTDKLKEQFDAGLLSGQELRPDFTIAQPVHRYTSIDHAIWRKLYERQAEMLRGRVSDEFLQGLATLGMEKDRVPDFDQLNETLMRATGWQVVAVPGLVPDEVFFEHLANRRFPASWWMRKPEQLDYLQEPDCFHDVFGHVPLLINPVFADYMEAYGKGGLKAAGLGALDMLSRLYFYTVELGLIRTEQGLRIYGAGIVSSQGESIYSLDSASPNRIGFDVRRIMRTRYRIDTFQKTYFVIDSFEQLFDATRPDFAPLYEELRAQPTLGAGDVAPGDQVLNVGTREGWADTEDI
The test is described as above. The format is biochemical. As to conditions: made in the CtAAAH-F (W192F) background; assay conditions only by citation.
Text: as §1

Test [3] has as its target T3, CtAAAH-F (aromatic amino acid hydroxylase W192F) (Cupriavidus taiwanensis, UniProt B3R7Q6, W192F).
T3 construct: gene phhA; engineered W192F parent, expressed in E. coli from pACYCDuet-1 derivatives; tag and purification not described here
Described as above. The format is biochemical. To be noted: parent CtAAAH-F (W192F); assay conditions only by citation.
Text: as §1

Test [4] has as its target T4, CtAAAH-F (aromatic amino acid hydroxylase W192F) (Cupriavidus taiwanensis, UniProt B3R7Q6, W192F/E219C).
T4 construct: gene phhA; engineered W192F parent, expressed in E. coli from pACYCDuet-1 derivatives; tag and purification not described here
The description is as above. The format is biochemical. As to conditions: made in the CtAAAH-F (W192F) background; assay conditions only by citation.
Text: as §1

In test [5] the target is T5, CtAAAH-F (aromatic amino acid hydroxylase W192F) (Cupriavidus taiwanensis, UniProt B3R7Q6, W192F/F197I).
T5 construct: gene phhA; engineered W192F parent, expressed in E. coli from pACYCDuet-1 derivatives; tag and purification not described here
T5 sequence (B3R7Q6 entry or part of it W192F/F197I): as the sequence (B3R7Q6 entry or part of it W192F/F197L) above, with L197I counted along it
Described as above. As to conditions: made in the CtAAAH-F (W192F) background; assay conditions only by citation. The format is biochemical.
Text: as §1

Test [6] addresses T6, TDC (tryptophan decarboxylase) (Catharanthus roseus, UniProt P17770).
T6 construct: expressed in E. coli BL21(DE3) delta-tnaA from pCOLAJ23-TDC; gene from pCOLADuet-GSTdelta37T5H + TDC
Description: whole-cell bioconversion, HPLC of serotonin. The format is cell-based. To be noted: E. coli BL21(DE3) delta-tnaA expressing TDC; pH 6.7, 30 °C.

T6 sequence (P17770 whole entry): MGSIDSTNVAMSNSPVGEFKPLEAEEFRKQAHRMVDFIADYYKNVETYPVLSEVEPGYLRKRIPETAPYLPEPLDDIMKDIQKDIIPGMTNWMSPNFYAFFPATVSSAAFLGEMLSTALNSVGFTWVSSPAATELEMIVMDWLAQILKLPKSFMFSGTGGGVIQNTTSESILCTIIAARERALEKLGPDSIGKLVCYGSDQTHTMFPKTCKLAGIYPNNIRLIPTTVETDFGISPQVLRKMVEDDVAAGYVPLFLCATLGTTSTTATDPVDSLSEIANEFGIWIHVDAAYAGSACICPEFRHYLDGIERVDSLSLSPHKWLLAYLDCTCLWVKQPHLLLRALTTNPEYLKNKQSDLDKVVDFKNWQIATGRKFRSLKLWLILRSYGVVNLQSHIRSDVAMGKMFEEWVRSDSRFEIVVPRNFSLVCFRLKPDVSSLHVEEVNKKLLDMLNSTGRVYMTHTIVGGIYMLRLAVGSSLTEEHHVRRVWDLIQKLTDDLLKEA
T3 sequence (B3R7Q6 entry or part of it W192F): as the sequence (B3R7Q6 entry or part of it W192F/F197L) above, with L197F counted along it
T4 sequence (B3R7Q6 entry or part of it W192F/E219C): as the sequence (B3R7Q6 entry or part of it W192F/F197L) above, with L197F, E219C counted along it
T1 sequence (B3R7Q6 entry or part of it W192F/F197L/E219C): as the sequence (B3R7Q6 entry or part of it W192F/F197L) above, with E219C counted along it

As usually defined, the Km is the concentration of substrate that gives half-maximal velocity. For the compound `N[C@@H](Cc1c[nH]c2ccccc12)C(=O)O` [tryptophan], the Km in test [1] came to 950 µM; in test [2], 1600 µM; in test [3], 3000 µM; in test [4], 1800 µM; in test [5], 2100 µM.
In the case of `N[C@@H](Cc1c[nH]c2ccc(O)cc12)C(=O)O` [5HTP], in test [6], the “whole-cell bioconversion, HPLC of serotonin” value was “The consumption of 5HTP and serotonin production had a strong correlation”.

For the origin of these results see article PMC5856393, “Synthetic pathways and processes for effective production of 5-hydroxytryptophan and serotonin from glucose in Escherichia coli” (Journal of Biological Engineering, 2018).
